The results in this text go back to PMC8521518, “Nicotinamide Adenine Dinucleotide-Dependent Flavin Oxidoreductase of Mycoplasma hyopneumoniae Functions as a Potential Novel Virulence Factor and Not Only as a Metabolic Enzyme” (Frontiers in Microbiology, 2021).

The target in the assay is T1, rNFOR (Mhp NFOR, NADH-dependent flavin oxidoreductase) (Mesomycoplasma hyopneumoniae, UniProt E4QSY0).
T1 construct: gene baiH; 44 kDa on gel
The experiment in a line: NADH oxidation. It counts as biochemical. Particulars: 0.5 mM NADH, 10 uM FMN (5 min preincubation), 0.1 M potassium phosphate pH 7.5, 1 mM DTT, 25 C.

T1 sequence (E4QSY0 entry or part of it): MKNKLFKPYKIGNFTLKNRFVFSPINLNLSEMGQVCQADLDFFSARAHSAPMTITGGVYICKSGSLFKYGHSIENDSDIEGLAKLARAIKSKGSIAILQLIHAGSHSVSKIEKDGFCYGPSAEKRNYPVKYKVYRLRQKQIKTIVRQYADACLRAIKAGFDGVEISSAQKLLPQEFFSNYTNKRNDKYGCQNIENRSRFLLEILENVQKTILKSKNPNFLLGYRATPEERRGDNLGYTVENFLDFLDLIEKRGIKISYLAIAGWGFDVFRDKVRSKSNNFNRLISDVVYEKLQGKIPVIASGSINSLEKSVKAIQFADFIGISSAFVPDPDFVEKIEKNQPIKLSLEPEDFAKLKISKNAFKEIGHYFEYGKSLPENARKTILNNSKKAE

`NC(=O)C1=CN([C@@H]2O[C@H](COP(=O)(O)OP(=O)(O)OC[C@H]3O[C@@H](n4cnc5c(N)ncnc54)[C@H](O)[C@@H]3O)[C@@H](O)[C@H]2O)C=CC1` [NADH]: the “NADH oxidation, absorbance at 340 nm” value was “enzymatic activity of purified rNFOR was determined by calculating the oxidation of NADH to NAD^+”.
